In US10167262B2, “Herbicidal substituted 3-arylpyrazoles” (FMC CORPORATION, priority 2014, dated 2019):

Assays:
[1] = test system: fall panicum (Panicum dichotomiflorum); assay: Test E pre-/postemergence greenhouse test, plant response rating 0-100; type: in vivo; conditions: Postemergence, scale 0 to 100
Outline: (§1)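 Seeds sown in silt loam soil received preemergence treatment with compound in a non-phytotoxic solvent mixture containing surfactant. Postemergence, plants at 2–18 cm (1- to 4-leaf stage) in peat/vermiculite medium were sprayed with the same formulation. Visual injury versus untreated controls was rated 0–100 after 14 to 21 days in the greenhouse.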

[2] = test system: field bindweed (Convolvulus arvensis); assay: as above; type: in vivo; conditions: Postemergence, scale 0 to 100
Outline: as §1

[3] = Panicum dichotomiflorum, post-emergence, 31 g ai/ha
[4] = Panicum dichotomiflorum, post-emergence, 62 g ai/ha
[5] = Panicum dichotomiflorum, post-emergence, 125 g ai/ha
[6] = Panicum dichotomiflorum, post-emergence, 250 g ai/ha
[7] = Convolvulus arvensis, post-emergence, 31 g ai/ha
[8] = Convolvulus arvensis, post-emergence, 62 g ai/ha
[9] = Convolvulus arvensis, post-emergence, 125 g ai/ha
[10] = Convolvulus arvensis, post-emergence, 250 g ai/ha

| Structure (SMILES) | pest or weed control at 31 g/ha [1, 3] | pest or weed control at 62 g/ha [1, 4] | pest or weed control at 125 g/ha [1, 5] | pest or weed control at 250 g/ha [1, 6] | pest or weed control at 31 g/ha [2, 7] | pest or weed control at 62 g/ha [2, 8] | pest or weed control at 125 g/ha [2, 9] | pest or weed control at 250 g/ha [2, 10] | Plant response rating, Field Bindweed ([2]; 31 g ai/ha) | Plant response rating, Field Bindweed ([2]; 62 g ai/ha) | Plant response rating, Field Bindweed ([2]; 125 g ai/ha) | Plant response rating, Field Bindweed ([2]; 250 g ai/ha) | Plant response rating, Field Bindweed ([2]; 500 g ai/ha) | also measured |
| --- | --- | --- | --- | --- | --- | --- | --- | --- | --- | --- | --- | --- | --- | --- |
| Clc1cc(Cl)cc(-c2n[nH]cc2C(=NN2CCCC2)c2ccccc2)c1 [Compound 30, N-[[3-(3,5-dichlorophenyl)-1H-pyrazol-4-yl]phenylmethylene]-1-pyrrolidinamine] | 0% | 0% | 0% | 0% | 0% | 0% | 0% | 0% | – | – | – | – | – | pest or weed control at 16 g/ha ([2]; Convolvulus arvensis, post-emergence, 16 g ai/ha): 0% |
| Fc1ccc(NN=C(c2ccccc2)c2c[nH]nc2-c2cc(Cl)cc(Cl)c2)cc1 [Compound 35] | – | – | – | – | – | – | – | – | 0 | 0 | 0 | 0 | 15 | – |
| ON=C(c1ccccc1)c1c[nH]nc1-c1cc(Cl)cc(Cl)c1 [Compound 50] | – | – | – | – | – | – | – | – | 0 | 0 | 0 | 0 | 5 | Plant response rating, Panicum, Fall ([1]; 31 g ai/ha): 0; Plant response rating, Panicum, Fall ([1]; 62 g ai/ha): 0; Plant response rating, Panicum, Fall ([1]; 125 g ai/ha): 0; Plant response rating, Panicum, Fall ([1]; 250 g ai/ha): 0; Plant response rating, Panicum, Fall ([1]; 500 g ai/ha): 0 |
| CCCn1cc(C(=O)c2ccccc2)c(-c2cc(Cl)cc(Cl)c2)n1 [Compound 61, [3-(3,5-dichlorophenyl)-1-propyl-1H-pyrazol-4-yl]phenylmethanone] | 0% | 0% | 0% | 0% | 0% | 0% | 0% | 0% | – | – | – | – | – | pest or weed control at 500 g/ha ([1]; Panicum dichotomiflorum, post-emergence, 500 g ai/ha): 0%; pest or weed control at 500 g/ha ([2]; Convolvulus arvensis, post-emergence, 500 g ai/ha): 5% |
